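In this assay, cells in 96-well plates receive the compound at five concentrations for 48 hours. Endpoints are linearly interpolated between the surrounding concentrations. TGI is the concentration that stops growth completely.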

Assay in all cases: NCI anticancer screen, dose series, 48 h
Experiment [1] concerns 786-0 renal.
For experiment [2], the system named is A498 renal.
For experiment [3], the system named is BT-549 breast.
Experiment [4] relates to CAKI-1 renal.
The test system of experiment [5] is COLO 205 colon.
Experiment [6] deals with HOP-92 NSCLC.
Experiment [7] concerns HS 578T breast.
Experiment [8] deals with K-562 leukemia.
In experiment [9] the test system is M14 melanoma.
In experiment [10] the test system is MOLT-4 leukemia.
Experiment [11] deals with NCI-H226 lung.
The subject of experiment [12] is NCI-H460 lung.
Experiment [13] concerns NCI/ADR-RES ovarian.
For experiment [14], the system named is SF-268 CNS.
Experiment [15] relates to SK-MEL-28 melanoma.
Experiment [16] relates to SK-MEL-5 melanoma.
The subject of experiment [17] is SK-OV-3 ovarian.
In experiment [18] the test system is SNB-75 CNS.
Experiment [19] relates to U251 CNS.
Experiment [20] has as its system UACC-257 melanoma.

As to `CC(=O)c1ccccc1NS(=O)(=O)c1ccc2nc(C)n(NS(=O)(=O)c3ccccc3C(C)=O)c(=O)c2c1`, the TGI in experiment [1], in [2], in experiment [3], in [4], in experiment [5] and in experiment [6] was greater than 100 µM in each case. In addition, the TGI in [7], in experiment [8], in [9], in experiment [10], in [11] and in experiment [12] was greater than 100 µM each time. For the same molecule, the TGI in experiment [13], in [14], in experiment [15], in experiment [16], in experiment [17] and in [18] was greater than 100 µM throughout. Besides, the TGI in experiment [19] and in experiment [20] was greater than 100 µM throughout.

With `CSc1ccc2c(cc1=O)[C@@H](NC(=O)c1ccc([N+](=O)[O-])cc1)CCc1cc(O)c(O)c(O)c1-2`, the TGI was 84.1 µM in experiment [1]; greater than 100 µM in [2]; greater than 100 µM in experiment [3]; 42.6 µM in experiment [4]; 53.7 µM in experiment [5]; greater than 100 µM in experiment [6]. Further, the TGI in [7] is 62 µM; in experiment [8], greater than 100 µM; in [9], greater than 100 µM; in experiment [10], greater than 100 µM; in experiment [11], greater than 100 µM; in experiment [12], greater than 100 µM. For the same molecule, the TGI is 53.6 µM in experiment [13]; greater than 100 µM in [14]; greater than 100 µM in [15]; 53.1 µM in experiment [16]; greater than 100 µM in experiment [17]; greater than 100 µM in experiment [18]. Also, the TGI in experiment [19] and in experiment [20] was greater than 100 µM throughout.

`CCCCCCCCCCCCCCCCOc1ccc(/C=C/C2=[N+](CCCl)CCO2)cc1`: the TGI in experiment [1], in experiment [2], in [3], in experiment [4], in [5] and in experiment [6] was greater than 100 µM each time. In addition, the TGI in [7], in experiment [8], in experiment [9], in experiment [10], in experiment [11] and in experiment [12] was greater than 100 µM each time. Moreover, the TGI in experiment [13], in experiment [15], in experiment [16], in experiment [17], in experiment [18] and in experiment [19] was greater than 100 µM each time. The molecule further registered a TGI in [20] greater than 100 µM.

On to `C=CCn1c(-c2ccc(Cl)cc2Cl)csc1=Nc1c(C)n(C)n(-c2ccccc2)c1=O`, for which the TGI in experiment [1] came out at 26.7 µM; in experiment [2], 25.4 µM; in experiment [3], 26.4 µM; in experiment [4], 31.7 µM; in [5], 25.6 µM; in experiment [6], 41.1 µM. For the same molecule, the TGI in experiment [7] stood at 44.7 µM; in [8], 8.38 µM; in [9], 23.8 µM; in experiment [10] it was 18.6 µM; in experiment [11], 33 µM; in experiment [12] it was 27.1 µM. Moreover, the TGI in experiment [13] turned out to be 34.2 µM; in experiment [14], 33.4 µM; in experiment [15], 26.7 µM; in [16], 13.1 µM; in [17], 19.4 µM; in experiment [18] it was 24.5 µM. The TGI is 25.1 µM in experiment [19] and 19.2 µM in experiment [20].

Take `CC1CC(C(=O)OC2OC(COC3OC(CO)C(OC4OC(C)C(O)C(O)C4O)C(O)C3O)C(O)C(O)C2O)C2CCC3(C)C(=CCC4(C)C3CCC3C(C)(CO)C(O)C(O)CC34C)C2C1C` (configuration not stated): the TGI was 51.5 µM in experiment [1]; greater than 10 µM in experiment [2]; 32.3 µM in experiment [3]; greater than 100 µM in [4]; 32.7 µM in [5]; 34.6 µM in [6]. Also, the TGI was 35.5 µM in experiment [7]; greater than 100 µM in experiment [8]; greater than 100 µM in experiment [9]; 41.4 µM in experiment [10]; 80.1 µM in experiment [11]; 66.6 µM in experiment [12]. The TGI is greater than 100 µM in experiment [13]; 37.8 µM in [14]; 33.5 µM in [15]; 33 µM in experiment [16]; greater than 100 µM in experiment [17]; 32.5 µM in experiment [18]. Besides, the figures for the TGI in experiment [19] and in experiment [20] were 33.5 µM and greater than 10 µM, respectively.

In the case of `Nc1c2c(nc3ccccc13)CCCc1ccccc1-2`, the TGI is 24.9 µM in experiment [1]; 22 µM in experiment [2]; greater than 100 µM in [3]; 40.9 µM in experiment [4]; 24.4 µM in [5]; 22.6 µM in [6]. In addition, the TGI in experiment [7] was 52 µM; in experiment [8], greater than 100 µM; in experiment [9], 21.6 µM; in [10], greater than 100 µM; in [11], 45.4 µM; in experiment [12] it was 14.5 µM. Also, the TGI in [13] was 69.7 µM; in [14], 38.4 µM; in [15] it was 25 µM; in experiment [16] it was 21 µM; in [17], greater than 100 µM; in experiment [18] it was 26.6 µM. The TGI in [19] was determined as 24.7 µM; in experiment [20], 27.1 µM.

`COC(=O)c1ccc(C)cc1CC1Cc2c(C)cccc2C1=O` (configuration not stated): the TGI in experiment [1] stood at 34.8 µM; in experiment [2], 24 µM; in [3] it was 21.1 µM; in experiment [4], 30.8 µM; in experiment [5], 17 µM; in experiment [6], 46.8 µM. Besides, the TGI was 34 µM in [7]; greater than 34.4 µM in experiment [8]; greater than 54.1 µM in [9]; greater than 47.2 µM in experiment [10]; 37.4 µM in experiment [11]; greater than 78.3 µM in [12]. Also, the TGI in [13] is 17.2 µM; in experiment [14] it was 44.7 µM; in experiment [15], 84.7 µM; in [16], 19.7 µM; in [17] it was 43.2 µM; in experiment [18] it was 20.9 µM. The TGI in [19] came out at 20.8 µM; in experiment [20], 49 µM.

As to `Cc1nc2ccccc2c(=O)n1/N=C/c1ccc(N(C)C)cc1`, the TGI in experiment [1], in experiment [2], in [3], in experiment [4], in experiment [5] and in experiment [6] was greater than 100 µM each time. Besides, the TGI in [7] was 54 µM; in experiment [9] it was greater than 100 µM; in experiment [10], greater than 100 µM; in [11], greater than 100 µM; in experiment [12] it was greater than 100 µM; in [13] it was greater than 100 µM. Besides, the TGI in [14] is greater than 100 µM; in experiment [15], greater than 100 µM; in [16], greater than 100 µM; in experiment [17], greater than 100 µM; in experiment [18] it was 43.9 µM; in experiment [19], greater than 100 µM. Also, the TGI in experiment [20] is greater than 100 µM.

For `CC(=O)OC1OC(c2ccoc2)C[C@@]12C1CCC3O[C@]3(C)[C@]1(C)C[C@H](OC(C)=O)[C@H]2C` (some centres not stated), the TGI in experiment [1], in experiment [2], in experiment [3], in [4], in experiment [5] and in experiment [6] was greater than 75 µM throughout. Also, the TGI in [7], in experiment [8], in [9], in [10], in [11] and in experiment [12] was greater than 75 µM each time. Also, the TGI in experiment [13], in [14], in experiment [15], in experiment [16], in experiment [17] and in [18] was greater than 75 µM each time. Further, the TGI in [19] and in experiment [20] was greater than 75 µM throughout.

Take `Oc1ccccc1-c1nn2c(CCCCCCCCc3nnc4sc(-c5ccccc5O)nn34)nnc2s1`: the TGI in experiment [1] is greater than 100 µM; in experiment [2], greater than 89 µM; in [3], greater than 100 µM; in experiment [4], greater than 100 µM; in experiment [5], greater than 100 µM; in experiment [6] it was greater than 100 µM. Besides, the TGI is greater than 100 µM in experiment [7]; greater than 100 µM in [8]; greater than 77.7 µM in experiment [9]; 51.1 µM in [10]; greater than 100 µM in [11]; greater than 100 µM in [12]. In addition, the TGI in experiment [13] was greater than 100 µM; in experiment [14] it was greater than 100 µM; in experiment [15], greater than 100 µM; in experiment [16], 64.8 µM; in experiment [17], 83.8 µM; in experiment [18], greater than 86.1 µM. The TGI in [19] and in [20] was greater than 100 µM throughout.

Turning to `Cc1ccc(S(=O)(=O)N2CCCSCCN(S(=O)(=O)c3ccc(C)cc3)CCCSCC2)cc1`, the TGI in experiment [1], in [2], in [3], in [5], in experiment [6] and in [7] was greater than 100 µM throughout. For the same molecule, the TGI in [8], in experiment [9], in experiment [10], in experiment [11], in experiment [12] and in [13] was greater than 100 µM each time. Besides, the TGI in [14], in experiment [15], in [16], in [17], in experiment [18] and in [19] was greater than 100 µM throughout. The same molecule yielded a TGI in experiment [20] greater than 100 µM.

The values are drawn from PubChem BioAssay (NCI).
